Measured values published in PubChem BioAssay (NCI).
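Grown in 96-well plates, cells were treated for 48 hours with each compound at five concentrations. Insufficient inhibition: endpoint recorded as highest concentration tested. The concentration for full growth arrest is given as TGI.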

How the values were obtained:
Assay in all cases: growth of human tumour cells (NCI), 48 h
HOP-92 NSCLC = system: HOP-92 NSCLC
UO-31 renal = system: UO-31 renal
UACC-257 melanoma = system: UACC-257 melanoma
OVCAR-3 ovarian = system: OVCAR-3 ovarian
CAKI-1 renal = system: CAKI-1 renal
HT29 colon = system: HT29 colon
SF-295 CNS = system: SF-295 CNS
HCC-2998 colon = system: HCC-2998 colon
OVCAR-5 ovarian = system: OVCAR-5 ovarian
HS 578T breast = system: HS 578T breast
HCT-116 colon = system: HCT-116 colon
EKVX NSCLC = system: EKVX NSCLC
A549 NSCLC = system: A549 NSCLC
MCF7 breast = system: MCF7 breast
BT-549 breast = system: BT-549 breast
SNB-19 CNS = system: SNB-19 CNS
OVCAR-4 ovarian = system: OVCAR-4 ovarian
MALME-3M melanoma = system: MALME-3M melanoma
NCI-H23 lung = system: NCI-H23 lung
NCI/ADR-RES ovarian = system: NCI/ADR-RES ovarian

Row | Compound | TGI (HOP-92 NSCLC) [µM] | TGI (UO-31 renal) [µM] | TGI (UACC-257 melanoma) [µM] | TGI (OVCAR-3 ovarian) [µM] | TGI (CAKI-1 renal) [µM] | TGI (HT29 colon) [µM] | TGI (SF-295 CNS) [µM] | TGI (HCC-2998 colon) [µM] | TGI (OVCAR-5 ovarian) [µM] | TGI (HS 578T breast) [µM] | TGI (HCT-116 colon) [µM] | TGI (EKVX NSCLC) [µM] | TGI (A549 NSCLC) [µM] | TGI (MCF7 breast) [µM] | TGI (BT-549 breast) [µM] | TGI (SNB-19 CNS) [µM] | TGI (OVCAR-4 ovarian) [µM] | TGI (MALME-3M melanoma) [µM] | TGI (NCI-H23 lung) [µM] | TGI (NCI/ADR-RES ovarian) [µM]
1 | CC1C2CC(CC2(C)O)C1(C)C (configuration not stated) | > 100 | > 100 | > 100 | > 100 | > 100 | > 100 | > 100 | > 100 | > 100 | > 100 | > 100 | > 100 | > 100 | > 100 | > 100 | > 100 | > 100 | > 100 | > 100 | –
2 | COc1cc2c(c(O)c1OC)C(=O)[C@@H]1CCC(=O)N1C2c1ccccc1 (some centres not stated) | – | > 100 | > 100 | > 100 | > 100 | > 100 | > 100 | > 100 | > 100 | > 100 | > 100 | > 100 | > 100 | > 100 | > 100 | > 100 | > 100 | > 100 | > 100 | > 100
3 | O=C(NNC1=NCCCN1)c1ccco1 | > 100 | > 100 | > 100 | > 100 | – | > 100 | > 100 | > 100 | > 100 | > 100 | > 100 | > 100 | > 100 | > 100 | > 100 | > 100 | > 100 | > 100 | > 100 | > 100
4 | C/C=C/C=C\C=C/C(O)C(C)C(CCC(C)C1OC(=O)C=CC1C)OP(=O)(O)O (configuration not stated) | 0.881 | 0.93 | 3.02 | 0.393 | 0.314 | 1.08 | 1.01 | – | 0.574 | 4.28 | 0.717 | 1.54 | 3.83 | 0.559 | 0.591 | 1.99 | 2.86 | 0.641 | 4.83 | 2.88
5 | CC(C)(Oc1ccc(Cl)cc1)C(=O)N(C(=O)N1CCCCC1)c1ccccc1 | – | 42 | – | 75.1 | 29.9 | 66.1 | – | – | 36.7 | 58.5 | 21.2 | 21.9 | – | 47.3 | 30.4 | 42.5 | – | 85.2 | 33.1 | 37.4
6 | N#Cc1ccc(-c2nc3c(N)nc(-c4ccccc4)nc3o2)cc1 | > 100 | > 100 | > 100 | > 100 | > 100 | > 100 | > 100 | > 100 | > 100 | > 100 | > 100 | > 100 | > 100 | > 100 | > 100 | > 100 | > 100 | – | > 100 | > 100
7 | Oc1[nH]c(=S)[nH]c1/C=C1/C(c2ccccc2)=Nc2ccccc21 | – | 21.4 | 29 | 30 | 37.5 | 30.5 | 26.5 | 36.9 | 36.1 | 42.4 | 27.5 | 36.4 | – | 28.5 | 28.6 | 76.3 | 57.4 | 26.4 | 29 | 51.7
8 | O=C(O)c1ccccc1CC1Cc2cc3c(cc2C1)CCC3 | – | > 100 | > 100 | > 100 | – | > 100 | > 100 | > 100 | > 100 | > 100 | > 100 | > 100 | > 100 | > 100 | > 100 | > 100 | > 100 | > 100 | > 100 | > 100
9 | CC(=O)Nc1ccc(C(=O)NN2C(=O)CSC2c2ccc(O)cc2)cc1 (configuration not stated) | > 100 | > 100 | > 100 | > 100 | – | > 100 | > 100 | > 100 | > 100 | > 100 | > 100 | > 100 | > 100 | > 100 | > 100 | > 100 | > 100 | – | > 100 | > 100
10 | CCOC(=O)c1ccc(C(=O)n2ccnc2)[nH]1 | – | > 100 | > 100 | > 100 | > 100 | – | > 100 | > 100 | > 100 | > 100 | > 100 | > 100 | > 100 | > 100 | > 100 | > 100 | > 100 | > 100 | > 100 | > 100
11 | CC1(C)C2CCC1(C)C(OC(=O)/C=C/C(=O)OC1CC3CCC1(C)C3(C)C)C2 (configuration not stated) | > 100 | > 100 | > 100 | > 100 | > 100 | > 100 | > 100 | > 100 | > 100 | > 100 | > 100 | > 100 | > 100 | 67.4 | > 100 | > 100 | > 100 | – | > 100 | > 100
12 | C/C=C(/C)C(=O)O[C@H]1[C@H]2[C@@H]([C@@H](OC(C)=O)[C@H](C)C(=O)[C@@]34C[C@@H](C)C(=O)[C@]3(/C=C(\C)[C@H]1OC(C)=O)O4)C2(C)C | 7.73 | 16 | 10.9 | 7.01 | 10 | – | > 20 | 8.53 | 7.77 | 19.7 | 5.99 | 17.1 | – | 5.98 | 5.84 | 18.4 | 14.2 | – | > 20 | 8.03
